Common to all, as to assay type: functional, Homo sapiens
The subject of assay [1] is U2OS. The assay can be described thus: (§1) Here: values are normalized to the negative (DMSO; defined as 0% autophagy induction) and positive (250nM Torin1; mTOR inhibitor; defined as maximal inducer of autophagy = 100%) control compounds and represented as % of autophagy induction. […] The impact of autophagy induction on cells is complex and depends on the affected target. As such, the magnitude of a phenotype may not be equally mirrored in the %-value of autophagy induction and vice versa. The dynamics of the induction may indicate the mode of activation: e.g. activation via phosphorylation or a signaling cascade may occur fast, while activation via transcription factors may take considerably longer. […] Of note, treatment concentrations may be sub-optimal for specific compounds, leading to false negative annotations. As to conditions: Culturing Media DMEM, 1 % Penicillin/Streptomycin, 10% Fetal bovin serum Add-On: No, Screening Media Control DMEM, Screening Media Samples DMEM.

Assay [2] deals with U2OS. The description is as §1. The settings on record: Culturing Media DMEM, 1 % Penicillin/Streptomycin, 10% Fetal bovin serum Add-On: No, Screening Media Control DMEM, Screening Media Samples DMEM. This is another data set of the same source.
In assay [3] the test system is TERT-RPE1. Described as §1. As to conditions: Culturing Media DMEM/F12 (1:1), 1 % Penicillin/Streptomycin, 10% Fetal bovin serum Add-On: No, Screening Media Control DMEM/F12 (1:1), Screening Media Samples DMEM/F12 (1:1).
Setting [4] is: Compound Concentration 0.5 uM, Timepoint 12 hours.
[5] abbreviates: Compound Concentration 0.5 uM, Timepoint 24 hours.
Setting [6] is: Compound Concentration 0.5 uM, Timepoint 36 hours.
Setting [7] is: Compound Concentration 0.5 uM, Timepoint 60 hours.
The mark [8] stands for this setting: Compound Concentration 2 uM, Timepoint 12 hours.
The mark [9] stands for this setting: Compound Concentration 2 uM, Timepoint 24 hours.
[10] abbreviates: Compound Concentration 2 uM, Timepoint 36 hours.
Where [11] appears, read: Compound Concentration 2 uM, Timepoint 60 hours.
Where [12] appears, read: Compound Concentration 10 uM, Timepoint 12 hours.
Setting [13] is: Compound Concentration 10 uM, Timepoint 24 hours.
The mark [14] stands for this setting: Compound Concentration 10 uM, Timepoint 36 hours.
Where [15] appears, read: Compound Concentration 10 uM, Timepoint 60 hours.
Where [16] appears, read: Compound Concentration 1 uM, Timepoint 12 hours.
[17] abbreviates: Compound Concentration 1 uM, Timepoint 24 hours.
The mark [18] stands for this setting: Compound Concentration 1 uM, Timepoint 36 hours.
Setting [19] is: Compound Concentration 1 uM, Timepoint 60 hours.

`Cl.Cl.Cl.c1ccc(N2CCN(Cc3nc4ccccc4[nH]3)CC2)nc1`: the autophagy induction in assay [1] (setting [4]) is given as -5.698%; in assay [1] (setting [5]), -1.19%; in assay [1] (setting [6]) it was -1.541%; in assay [1] (setting [7]), -2680.35%; in assay [1] (setting [8]), -2.768%; in assay [1] (setting [9]), -5.039%. Moreover, the autophagy induction in assay [1] (setting [10]) is reported as -4.313%; in assay [1] (setting [11]) it was -2193.41%; in assay [1] (setting [12]), 1.805%; in assay [1] (setting [13]), -0.2364%; in assay [1] (setting [14]), -2.475%; in assay [1] (setting [15]), 114.324%. Further, the autophagy induction is reported as 6.453% in assay [2] (setting [4]); 3.88% in assay [2] (setting [5]); 1.316% in assay [2] (setting [6]); -5.738% in assay [2] (setting [7]); 16.1665% in assay [2] (setting [8]); 12.3628% in assay [2] (setting [9]). The autophagy induction in assay [2] (setting [10]) is given as 4.3069%; in assay [2] (setting [11]), -1.986%; in assay [2] (setting [12]) it was 1.702%; in assay [2] (setting [13]) it was -2.316%; in assay [2] (setting [14]), -1.149%; in assay [2] (setting [15]) it was 1.595%.

In the case of `O=c1[nH]c2ccccc2n1CCCN1CCN(C(c2ccccc2)c2ccccc2)CC1` [OXATOMIDE], the autophagy induction in assay [3] (setting [12]) is reported as 12.1676%; in assay [3] (setting [13]), 23.0166%; in assay [3] (setting [14]) it was 23.6799%; in assay [3] (setting [15]), -2.469%.

In the case of `CCC(C)N(C)C(=O)c1cc2ccccc2c(-c2ccccc2Cl)n1` (configuration not stated) [PK-11195], the autophagy induction in assay [3] (setting [12]) was -6.134%; in assay [3] (setting [13]), 6.633%; in assay [3] (setting [14]) it was 20.4099%; in assay [3] (setting [15]) it was 30.5956%.

`CC(C)c1cc(Oc2c(Cl)cc(-n3nc(C#N)c(=O)[nH]c3=O)cc2Cl)n[nH]c1=O` [RESMETIROM]: the autophagy induction in assay [3] (setting [16]) is on record as -11.5681%; in assay [3] (setting [17]), 0.0003786%; in assay [3] (setting [18]), 17.8213%; in assay [3] (setting [19]), -19.2681%.

With `CO[C@H]1/C=C/O[C@@]2(C)Oc3c(C)c(O)c4c(O)c(c(/C=N/N5CCN(C)CC5)c(O)c4c3C2=O)NC(=O)/C(C)=C\C=C\[C@H](C)[C@H](O)[C@@H](C)[C@@H](O)[C@@H](C)[C@H](OC(C)=O)[C@@H]1C` [RIFAMPIN], the autophagy induction is listed as -6.53% in assay [3] (setting [16]), -7.862% in assay [3] (setting [17]), -4.147% in assay [3] (setting [18]) and 5.829% in assay [3] (setting [19]).

Consider `CN(CCOc1ccc(CC2SC(=O)NC2=O)cc1)c1ccccn1` (configuration not stated) [ROSIGLITAZONE], for which the autophagy induction is recorded as -11.8893% in assay [3] (setting [16]), 0.9014% in assay [3] (setting [17]), 16.9691% in assay [3] (setting [18]) and -11.1596% in assay [3] (setting [19]).

For the compound `C=C1/C(=C\C=C2/CCC[C@]3(C)[C@@H]([C@H](C)/C=C/C=C/C(O)(CC)CC)CC[C@@H]23)C[C@@H](O)C[C@@H]1O` [SEOCALCITOL], the autophagy induction in assay [3] (setting [16]) is given as 1.435%; in assay [3] (setting [17]), 3.014%; in assay [3] (setting [18]), 6.115%; in assay [3] (setting [19]), 9.3722%.

For the compound `Cc1cc(OCC(=O)O)cc(C)c1Cc1ccc(O)c(C(C)C)c1` [SOBETIROME], the autophagy induction in assay [3] (setting [16]) is reported as -4.298%; in assay [3] (setting [17]) it was -6.005%; in assay [3] (setting [18]), 3.899%; in assay [3] (setting [19]), 12.5403%.

Take `CCOC(=O)N1CCC(CN(Cc2ccc(Cl)cc2)Cc2ccc([N+](=O)[O-])s2)C1` (configuration not stated) [SR9009]: the autophagy induction is -2.29% in assay [3] (setting [16]), -4.7715% in assay [3] (setting [17]), -4.329% in assay [3] (setting [18]) and -0.7127% in assay [3] (setting [19]).

For `CCCCCNC(=O)N1CCC(CN(Cc2ccc(Cl)cc2)Cc2ccc([N+](=O)[O-])s2)C1` (configuration not stated) [SR9011], the autophagy induction in assay [3] (setting [16]) was -13.327%; in assay [3] (setting [17]) it was -1.26%; in assay [3] (setting [18]) it was 19.5212%; in assay [3] (setting [19]), -21.0748%.

In the case of `O=S(=O)(c1ccccc1)N(CC(F)(F)F)c1ccc(C(O)(C(F)(F)F)C(F)(F)F)cc1` [T091317], the autophagy induction is -11.1926% in assay [3] (setting [16]), -0.1715% in assay [3] (setting [17]), 8.77% in assay [3] (setting [18]) and -29.9579% in assay [3] (setting [19]).

For `CC1(C)CCC(C)(C)c2cc(NC(=O)c3ccc(C(=O)O)cc3)ccc21` [TAMIBAROTENE], the autophagy induction in assay [3] (setting [16]) is reported as -36.8107%; in assay [3] (setting [17]) it was -29.3713%; in assay [3] (setting [18]) it was -7.633%; in assay [3] (setting [19]) it was 34.9259%.

In the case of `CCOC(=O)c1ccc(C#Cc2ccc3c(c2)C(C)(C)CCS3)nc1` [TAZAROTENE], the autophagy induction in assay [3] (setting [16]) was -17.2771%; in assay [3] (setting [17]), -27.562%; in assay [3] (setting [18]), -16.2551%; in assay [3] (setting [19]), 40.4791%.

As for `Cn1cc(C(=O)O)c2ccc(N3CCC(OCc4c(-c5c(Cl)cccc5Cl)noc4C4CC4)CC3)cc21` [TERN-101], the autophagy induction in assay [3] (setting [16]) is -2.759%; in assay [3] (setting [17]), -6.198%; in assay [3] (setting [18]) it was -6.322%; in assay [3] (setting [19]), 3.921%.

On to `CCO[C@@H](Cc1ccc(OCCc2ccc(OS(C)(=O)=O)cc2)cc1)C(=O)O` [TESAGLITAZAR], for which the autophagy induction in assay [3] (setting [16]) is -2.81%; in assay [3] (setting [17]), -1.872%; in assay [3] (setting [18]) it was 4.96%; in assay [3] (setting [19]), 2.851%.

For the compound `O=C(O)Cc1cc(I)c(Oc2ccc(O)c(I)c2)c(I)c1` [TIRATRICOL], the autophagy induction in assay [3] (setting [16]) is recorded as -9.01%; in assay [3] (setting [17]), -9.767%; in assay [3] (setting [18]), -3.577%; in assay [3] (setting [19]), 11.3725%.

In the case of `O=C(O)c1cc(F)c2nc(N3[C@@H]4CC[C@H]3C[C@@H](OCc3c(-c5ccccc5OC(F)(F)F)noc3C3CC3)C4)sc2c1` [TROPIFEXOR], the autophagy induction in assay [3] (setting [16]) is reported as -16.0144%; in assay [3] (setting [17]), -6.889%; in assay [3] (setting [18]) it was 7.971%; in assay [3] (setting [19]) it was -23.0565%.

For the compound `CC(C)OC(=O)C1=CN(C(=O)c2ccc(F)c(F)c2)CC(C)(C)c2c1[nH]c1ccccc21` [TUROFEXORATE ISOPROPYL], the autophagy induction is listed as -4.447% in assay [3] (setting [16]), -6.097% in assay [3] (setting [17]), -6.537% in assay [3] (setting [18]) and 2.1006% in assay [3] (setting [19]).
